From patent US20260021061A1, “ARIADNE AND ANALOGS FOR THE TREATMENT OF NEUROLOGICAL AND NEUROMUSCLAR DISORDERS” (priority 2022, published 2026)
Structures can show the parent of a compound that is named as a salt. Where two headings read alike, the source gives them in different places.

Columns and labels:
5-HT2A [1] = molecular target: T1, 5-HT2A (Homo sapiens, UniProt P28223); experiment: IP1 agonism (IP1 formation assay), Cerep, Eurofins; format: cell-based; parameters: purchased Cerep, Eurofins (contract assay); settings: duplicate averages only
T1 sequence (P28223 whole entry): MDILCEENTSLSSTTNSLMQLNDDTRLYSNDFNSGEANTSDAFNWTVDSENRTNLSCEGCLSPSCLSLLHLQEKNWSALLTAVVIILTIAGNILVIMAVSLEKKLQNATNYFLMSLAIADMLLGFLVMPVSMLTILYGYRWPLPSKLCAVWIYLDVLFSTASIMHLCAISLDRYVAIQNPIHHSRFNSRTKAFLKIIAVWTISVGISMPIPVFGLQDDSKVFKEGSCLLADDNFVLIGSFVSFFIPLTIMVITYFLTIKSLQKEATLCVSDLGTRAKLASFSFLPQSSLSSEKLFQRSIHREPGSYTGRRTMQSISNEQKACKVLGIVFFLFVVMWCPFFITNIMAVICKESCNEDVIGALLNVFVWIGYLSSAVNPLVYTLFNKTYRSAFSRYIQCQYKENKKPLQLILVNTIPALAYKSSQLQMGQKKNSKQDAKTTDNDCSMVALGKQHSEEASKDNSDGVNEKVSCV
Description: (§1) FIGS. 8A-B Comparison of 5-HT2A (a) and 5-HT2B (b) receptor in IP1 formation assay for selected compounds, performed at Cerep, Eurofins.
(§2) IP1 agonism summary for selected compounds (duplicate averages only), performed at Cerep, Eurofins.

C57BL/6J mice [2] = experiment: Head twitch response (HTR) in mice; format: in vivo, mouse; settings: s.c.
Description: All samples were prepared the same day testing was performed. Solids were weighed into small vials and dissolved in USP grade 0.85% saline with addition of 2 molar equivalents of glacial acetic acid. Sonication and gentle heating were applied until complete dissolution. The compounds were subsequently filtered through 0.45 μm filters into a new glass vial. All compounds were administered at a 1 mg/kg subcutaneous dose at a volume of 10 mL/kg of body weight. Volinanserin hydrochloride salt (MDL 100907) was purchased from Toronto Research Chemicals.
All experimental procedures involving animals were approved by an Institutional Animal Care and Use Committee (IACUC) and adhered to principles described in the National Institutes of Health Guide for the Care and Use of Laboratory Animals. The studies were conducted at AAALAC accredited facilities. Animals received regular veterinary care (weekly by institutional veterinarians) including daily health monitoring (by experimenters) of the animals (observing home cage behaviors, nesting, and body weight). All procedures were designed to minimize any stress/distress. Healthy adult male mice C57BL/6J (8-12 weeks, 26-33 g) were purchased from the Jackson Laboratory (Bar Harbor, ME) and housed 5 mice per cage with food and water available ad libitum. Mice were maintained on a 12-h light/dark cycle (lights on 7:00-19:00) and all testing was done in the light cycle. Temperature was kept constant at 22±2° C., and relative humidity was maintained at 50±5%
The head-twitch response evaluation was performed by a trained observer who was blinded to both drug and dose. Mice were moved to the testing room 30 min before the experiment to allow for acclimation. The body weight of each mouse was recorded. Mice were administered either a 1, 3, 10, or 30 mg/kg s.c. dose of compound solution (volume of injection 260-330 μL based on body weight). […] The total number of head-twitches over the 15 minute period were recorded. Five mice were used per dose.
DOI was tested at the doses of 0.3, 1, 3, and 10 mg/kg (s.c., 5 mice per dose) and testing began immediately after administration of the compound. Ariadne was tested at the doses of 1, 3, 10, and 30 mg/kg (s.c., 5 mice per dose) and there was a 10 min interval between treatment and testing.

C57BL/6J mice [3] = experiment: Open field locomotion in mice; format: in vivo, mouse
5-HT2B [4] = molecular target: T2, 5-HT2B (Homo sapiens, UniProt P41595); experiment: IP1 agonism (IP1 formation assay), Cerep, Eurofins; format: cell-based; parameters: purchased Cerep, Eurofins (contract assay); settings: duplicate averages only
T2 sequence (P41595 whole entry): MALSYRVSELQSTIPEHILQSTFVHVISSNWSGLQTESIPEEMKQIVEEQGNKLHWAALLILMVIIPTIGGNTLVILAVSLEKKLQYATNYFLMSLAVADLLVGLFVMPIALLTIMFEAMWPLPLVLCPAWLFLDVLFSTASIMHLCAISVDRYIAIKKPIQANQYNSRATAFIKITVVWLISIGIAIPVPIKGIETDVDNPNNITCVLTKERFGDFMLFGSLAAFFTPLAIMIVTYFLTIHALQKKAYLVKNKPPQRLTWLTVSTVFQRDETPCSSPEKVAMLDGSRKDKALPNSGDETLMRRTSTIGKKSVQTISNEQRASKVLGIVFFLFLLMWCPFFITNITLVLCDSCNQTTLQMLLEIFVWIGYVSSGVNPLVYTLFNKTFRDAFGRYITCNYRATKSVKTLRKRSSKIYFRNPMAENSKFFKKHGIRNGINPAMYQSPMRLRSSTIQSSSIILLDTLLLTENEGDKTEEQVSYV
Description: as §1, §2

5-HT2A [5] = molecular target: T1, 5-HT2A; experiment: G protein (Gq) dissociation BRET assay; format: cell-based; parameters: host or cells: HEK293T (ATCC CRL-11268)
5-HT2A [6] = molecular target: T1, 5-HT2A; experiment: Radioligand displacement assay; format: binding
Description: Therefore, an orthogonal assay measuring calcium flux was also performed for the 5-HT2 receptors (Klein et al., 2020).

humans = settings: per oral administration; cited from earlier work
5-HT2B [7] = molecular target: T2, 5-HT2B; experiment: G protein (Gq) dissociation BRET assay
Description: (§3) All BRET assays were conducted using BRET2 in HEK293T cells (ATCC CRL-11268; mycoplasma-free), which were subcultured in high-glucose DMEM (VWR) supplemented with 10% FBS (Life Technologies).
(§4) Constructs in G protein-dissociation BRET assays were derived from the codon-optimized Tango pcDNA3.1 library (Addgene) with V2tail/TEV/tTA encoding regions deleted to yield “de-Tango” constructs. […] All Gα-Rluc8, Beta, and GFP2-γ constructs were derived from the TRUPATH pcDNA5/FRT/TO library (Addgene).
(§5) Approximately 48 hours before assays, cells were transfected using a reverse transfection method and plated in 1% dFBS at an approximate density of 15,000 cells per well into poly-L-lysine-coated 384-well white assay plates (Grenier Bio-One). For G protein-dissociation assays, cells were transfected in a 1:1:1:1 ratio of receptor: Gα-Rluc8: Beta: GFP2-γ constructs. […] All transfections were prepared in Opti-MEM (Invitrogen) and used a 3:1 ratio of TransIT-2020 (Mirus) uL:ug total DNA.
(§6) On the day of the assay, plates were decanted and 20 uL of drug buffer per well (1×HBSS, 20 mM HEPES, pH 7.4) was added using a Multidrop (ThermoFisher Scientific), and plates were allowed to equilibrate at 37° C. in a humidified incubator before receiving drug stimulation. Drug dilutions of all compounds were performed in McCorvy buffer (1×HBSS, 20 mM HEPES, pH 7.4, supplemented with 0.3% BSA fatty acid free (GoldBio), and 0.03% ascorbic acid). […] Next, plates were incubated at 37° C. in a humidified incubator for 60 minutes or specified time point. Before reading, addition of coelenterazine 400a (5 uM final concentration; Nanolight Technology) was performed by the [sequence]. Immediately after, plates were read at 400 nm Rluc and fluorescent GFP2 emission at 510 nm for BRET2 at 0.8 second per well using a PheraStarFSX (BMB Lab Tech).
(§7) The BRET ratios of 510/400 luminescence were calculated per well and were plotted as a function of drug concentration using Graphpad Prism 5 or 9 (Graphpad Software Inc., San Diego, CA). Data were normalized to % positive control stimulation and analyzed using nonlinear regression “log(agonist) vs. response” to yield Emax and EC50 parameter estimates.

5-HT2C receptor = molecular target: T3, 5-HT2C receptor (Homo sapiens, UniProt P28335); experiment: G protein (Gq) dissociation BRET assay; settings: read-out: Emax/Gq
T3 sequence (P28335 33-458): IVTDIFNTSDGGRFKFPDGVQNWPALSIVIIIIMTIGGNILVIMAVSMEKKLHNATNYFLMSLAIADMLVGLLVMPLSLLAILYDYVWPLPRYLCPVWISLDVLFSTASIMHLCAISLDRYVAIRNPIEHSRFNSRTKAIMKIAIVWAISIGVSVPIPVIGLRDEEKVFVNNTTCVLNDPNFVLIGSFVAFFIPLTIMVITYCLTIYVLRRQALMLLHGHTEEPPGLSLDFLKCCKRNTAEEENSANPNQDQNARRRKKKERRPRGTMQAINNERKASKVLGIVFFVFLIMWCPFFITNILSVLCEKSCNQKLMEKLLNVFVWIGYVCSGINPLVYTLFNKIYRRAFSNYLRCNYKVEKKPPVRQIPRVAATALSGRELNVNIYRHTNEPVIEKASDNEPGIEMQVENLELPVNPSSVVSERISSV
Description: as §3, §4, §5, §6, §7

[8] = EC50 (5-HT2A) (M), Table 7, IP1 agonism
[9] = EC50 (5-HT2B) (M), Table 7, IP1 agonism

`CCC(N)Cc1cc(OC)c(C2CC2)cc1OC` (centres unmarked) [Compound 30, 1-(4-cyclopropyl-2,5-dimethoxyphenyl)butan-2-amine] showed an EC50 (5-HT2A [1]; 5-HT2a (IP1 agonism), Table 2) of 3.7e-06 M.

For `CCC(N)Cc1cc(OC)c(C#N)cc1OC` (centres unmarked) [Compound 4, 4-(2-aminobutyl)-2,5-dimethoxybenzonitrile trifluoroacetate], the EC50 (5-HT2A [1]; 5-HT2a (IP1 agonism), Table 2) was 1.1e-05 M.

For `CCCc1cc(OC)c(CC(C)N)cc1OC` (racemic) [Compound 44, 1-(2,5-dimethoxy-4-propylphenyl) propan-2-amine, reference compound], the HTR response (C57BL/6J mice [2]) was “robust dose-dependent HTR response”, the “dose of maximum (peak) HTR” value (C57BL/6J mice [2]) was 1 mg/kg and the “time to maximum HTR frequency post-drug administration” value (C57BL/6J mice [2]) was 10 min. The “time in the center of the arena” value (C57BL/6J mice [3]; open field) was “trend for spending less time in the center” and the effects on locomotion (C57BL/6J mice [3]; s.c., trending toward increased locomotion at HTR peak dose (1 mg/kg)) was “minor to no effects on locomotion”.

For `CCc1cc(OC)c(CC(N)CC)cc1OC` (centres unmarked) [Compound 35, 1-(4-ethyl-2,5-dimethoxyphenyl)butan-2-amine], the EC50 (5-HT2A [1]; 5-HT2a (IP1 agonism), Table 2) was 1.9e-06 M and the EC50 (5-HT2B [4]; 5-HT2b (IP1 agonism), Table 2) was 5.7e-07 M.

For `CCC(N)Cc1cc(OC)c(I)cc1OC` (centres unmarked) [Compound 34, 1-(4-iodo-2,5-dimethoxyphenyl)butan-2-amine], the EC50 (5-HT2A [5]; EC50 (EC50/Gq), Gq dissociation, Gq dissociation BRET) was 16 nM, the “increase in Gq potency compared to Ariadne” value (5-HT2A [5]; EC50/Gq comparison) was > 10 fold and the EC50 (5-HT2A [1]; 5-HT2a (IP1 agonism), Table 2) was 9.7e-06 M. It also gave an EC50 (5-HT2B [4]; 5-HT2b (IP1 agonism), Table 2) of 1.8e-05 M.

In the case of `CCC(N)Cc1cc(OC)c(Cl)cc1OC` (centres unmarked) [Compound 41, 1-(4-chloro-2,5-dimethoxyphenyl)butan-2-amine], the EC50 (5-HT2A [1]; 5-HT2a (IP1 agonism), Table 2) is reported as 1.9e-07 M and the EC50 (5-HT2B [4]; 5-HT2b (IP1 agonism), Table 2) is reported as 1.4e-05 M.

Work on `CCC(N)Cc1cc(OC)c(S(C)(=O)=O)cc1OC` (centres unmarked) [Compound 33, 1-(2,5-dimethoxy-4-(methylsulfonyl)phenyl)butan-2-amine trifluoroacetate] yielded an EC50 (5-HT2A [1]; 5-HT2a (IP1 agonism), Table 2) of 3.4e-06 M and an EC50 (5-HT2B [4]; 5-HT2b (IP1 agonism), Table 2) of 2.5e-05 M.

For `CCC(N)Cc1cc(OC)c(Br)cc1OC` (centres unmarked) [Compound 31, 1-(4-bromo-2,5-dimethoxyphenyl)butan-2-amine], the EC50 (5-HT2A [1]; 5-HT2a (IP1 agonism), Table 2) was 9e-08 M and the EC50 (5-HT2B [4]; 5-HT2b (IP1 agonism), Table 2) was 5.5e-06 M.

Work on `CCC(N)Cc1cc(OC)c(SC)cc1OC` (centres unmarked) [Compound 28, 1-(2,5-dimethoxy-4-(methylthio)phenyl)butan-2-amine] yielded an EC50 (5-HT2A [1]; 5-HT2a (IP1 agonism), Table 2) of 1.6e-07 M and an EC50 (5-HT2B [4]; 5-HT2b (IP1 agonism), Table 2) of 6.6e-08 M.

`COc1cc(CC(N)C2CC2)c(OC)cc1C` (centres unmarked) [Compound 38, 1-cyclopropyl-2-(2,5-dimethoxy-4-methylphenyl)ethan-1-amine] gave an EC50 (5-HT2A [1]; Table 2, read-out: 5-HT2a (IP1 agonism)) of 9.7e-06 M and an EC50 (5-HT2B [4]; Table 2, read-out: 5-HT2b (IP1 agonism)) of 2.1e-05 M.

`CC[C@H](N)Cc1cc(OC)c(C)cc1OC` [(S)-Ariadne] showed a Ki (5-HT2A [6]) of 220 nM.

In the case of `CCCc1cc(OC)c(CC(N)CC)cc1OC` (centres unmarked) [Compound 42, 1-(2,5-dimethoxy-4-propylphenyl)butan-2-amine], the EC50 (5-HT2A [1]; 5-HT2a (IP1 agonism), Table 2) is reported as 2.1e-07 M.

In the case of `CCCC(N)Cc1cc(OC)c(C)cc1OC` (centres unmarked) [Compound 39, 1-(2,5-dimethoxy-4-methylphenyl) pentan-2-amine], the HTR response (C57BL/6J mice [2]) is reported as “indistinguishable from vehicle” and the EC50 (5-HT2B [4]; 5-HT2b (IP1 agonism), Table 2) is reported as 2.3e-05 M.

In the case of `CCC(N)Cc1c(OC)cc(C)cc1OC` (centres unmarked) [Compound 40, 1-(2,6-dimethoxy-4-methylphenyl)butan-2-amine], the EC50 (5-HT2A [1]; 5-HT2a (IP1 agonism), Table 2) is reported as 1e-05 M.

With `CCC(N)Cc1cc(OC)c(C(C)(F)F)cc1OC` (centres unmarked) [Compound 50, 1-(4-(1,1-difluoroethyl)-2,5-dimethoxyphenyl)butan-2-amine] the EC50 (5-HT2A [1]; [8]) was 2.5e-08 M and the EC50 (5-HT2B [4]; [9]) was 1.1e-07 M.

In the case of `CCSc1cc(OC)c(CC(N)CC)cc1OC` (centres unmarked) [Compound 27, 1-(4-(ethylthio)-2,5-dimethoxyphenyl)butan-2-amine], the EC50 (5-HT2A [1]; 5-HT2a (IP1 agonism), Table 2) is reported as 5.3e-08 M and the EC50 (5-HT2B [4]; 5-HT2b (IP1 agonism), Table 2) is reported as 6.3e-07 M.

Molecule `CCC(N)Cc1cc(OC)c(CC(C)(F)F)cc1OC` (centres unmarked) [Compound 58, 1-(4-(2,2-difluoropropyl)-2,5-dimethoxyphenyl)butan-2-amine] has an EC50 (5-HT2A [1]; [8]) of 4.3e-06 M.

Molecule `CCOc1cc(CC(N)CC)c(OC)cc1C(F)(F)F` (centres unmarked) [Compound 36, 1-(5-ethoxy-2-methoxy-4-(trifluoromethyl)phenyl)butan-2-amine] has an EC50 (5-HT2A [1]; 5-HT2a (IP1 agonism), Table 2) of 2.8e-07 M and an EC50 (5-HT2B [4]; 5-HT2b (IP1 agonism), Table 2) of 9.5e-07 M.

Molecule `CCC(N)Cc1cc(OC)c(C(F)(F)CC)cc1OC` (centres unmarked) [Compound 53, 1-(4-(1,1-difluoropropyl)-2,5-dimethoxyphenyl)butan-2-amine] has an EC50 (5-HT2A [1]; [8]) of 5.7e-08 M and an EC50 (5-HT2B [4]; [9]) of 1.9e-07 M.

For `COc1cc(CC(C)N)c(OC)cc1C` (centres unmarked) [DOM, 2,5 Dimethoxy-4-methylamphetamine, reference compound], the “potency in humans relative to mescaline” value (humans) is given as “approximately 100 times”.

In the case of `CCC(N)Cc1cc(OC)c(COC)cc1OC` (centres unmarked) [Compound 37, 1-(2,5-dimethoxy-4-(methoxymethyl)phenyl)butan-2-amine], the HTR response (C57BL/6J mice [2]) is reported as “only residual HTR”, the “less potent at 5-HT2A compared to Ariadne” value (5-HT2A [5]; Gq dissociation) is reported as “approximately 2 fold” and the Emax (5-HT2A [5]; Gq dissociation BRET, normalized to 5-HT, read-out: Emax (Emax/Gq) relative to 5-HT) is reported as 78%. For the same molecule, the “potency at 5-HT2B compared to Ariadne” value (5-HT2B [7]; Gq dissociation) was “twice as potent”, the Emax (5-HT2B [7]; read-out: Emax/Gq) was 43% and the Emax (5-HT2C receptor) was 82%.
